Data published in patent US20220364069A1, “METHOD FOR THE PRODUCTION OF AN ENZYMATIC COMPOSITION COMPRISING A RECOMBINANT ENDOPEPTIDASE” (NEMYSIS LIMITED, priority 2019, published 2022).
Converted amounts (≈) assume the structure as drawn. Where two headings read alike, the source gives them in different places.

What was measured:
Escherichia coli L47 = assay: Broth microdilution antimicrobial assay, E. coli; assay type: cell-based; settings: E. coli L47, 18 h, 35° C.; for MIC: Escherichia coli, read-out: MIC (Minimal Inhibitory Concentration)
From the text: (§1) As known, S. lividans TK24 could potentially produce actinorhodin (ACT), undecylprodigiosin (UDP), and calcium-dependent antibiotic (CDA), especially when grown under fermentation conditions. Broth microdilution assay, standardized by the Clinical and Laboratory Standards Institute (CLSI) was then used to evaluate antibiotic presence in samples deriving from enzyme preparations obtained by the method of the invention. Antimicrobial activity has been tested against test microorganisms (test-mo), known to not show any antibiotic resistance: Staphylococcus aureus ATCC6538 (representative of Gram+); Escherichia coli L47 (Lepetit collection; representative of Gram-); Candida albicans L145 (Lepetit collection; representative of Yeast).
(§2) A two-fold serial dilution of the samples to be tested was performed in sterile 96-well microplates, then inoculated with the test-mo in their respective medium (100 μl/well final volume); each determination was carried out in triplicate. The inoculated microplates were then incubated for 18, 20 and 24 h for E. coli, S. aureus and C. albicans, respectively, at 35° C. Antimicrobial activity of samples of unknown “antimicrobial” concentration was measured as endpoint, that is the highest dilution that inhibits the test strain growth; it was determined by visual examination of the microplates with the aid of a magnifying mirror.

[1] = test system: Staphylococcus aureus ATCC6538; assay: Broth microdilution antimicrobial assay, S. aureus; assay type: cell-based; settings: S. aureus ATCC6538, 20 h, 35° C.; for MIC: Staphylococcus aureus, read-out: MIC (Minimal Inhibitory Concentration)
From the text: as §1, §2

Candida albicans L145 = assay: Broth microdilution antimicrobial assay, C. albicans; assay type: cell-based; settings: for MIC: Candida albicans, L145, read-out: MIC (Minimal Inhibitory Concentration)
From the text: as §1, §2

[2] = Activity of culture supernatant toward sucAAPF-AMC at various pH; assay type: biochemical
Description: (§3) FIG. 1. Activity of Actinoallomurus A8 culture supernatant fraction containing the native E40. A: relative activity toward the substrate sucAlaAlaProPhe-AMC (sucAAPF-AMC) at various pH values (the optimum —100% activity— is at pH 5). B: Gliadin digestion after 2 hours of incubation at 37° C., pH 3. Gel stained with Coomassie R250 brilliant blue; Lane 1: gliadin alone, lane 2: gliadin+E40-containing supernatant fraction.
FIG. 3. Recombinant E40 (SEQ ID NO: 2) obtained by S. lividans TK24/p1J86/e40 submerged fermentation, at flask scale (panels A-C) or in a 15 L bioreactor, followed by purification (panels D-E). A: activity toward the substrate sucAAPF-AMC at pH 5 of supernatant samples taken at different fermentation times (♦72, ▴96, ●168, ▪192 fermentation hours) from the producing S. lividans TK24/p1J86/E40 (E40, continuous line) and absence of activity of supernatant samples taken from the pIJ86-empty control strain (ctr, dashed lines). Activity is shown as relative fluorescent units (rfu, Y axis) produced in time (X axis). […] D: profile of an enzyme preparation comprising recombinant E40 purified from the 15 L fermentation; lane 1: final enzyme preparation comprising recombinant E40 stained with Coomassie (the arrow indicates recombinant E40), lane 2: zymography as in C, lane 3: band of gelatin hydrolysis after 2 hours of digestion at 37° C. and pH 5, visualized after Coomassie staining of the gelatin substrate. E: relative activity (%) of recombinant E40 in the purified enzyme preparation at different pH values (from 2 to 8), evaluated with the substrate suc-Ala-Ala-Pro-Phe-pNA.
As well as native E40, recombinant E40 was active in the pH range 3-6, with an optimum at pH 5 (FIG. 3, panel B).

gliadin = assay: Gliadin digestion by native E40 fraction (SDS-PAGE); assay type: biochemical; settings: 2 hours, 37° C., pH 3
Description: as §3
Native E40 of sequence SEQ ID NO: 3 was purified from the supernatant fraction of an Actinoallomurus A8 culture isolated from soil (native E40) as described in WO2013083338.

Molecule: C[C@@H]1[C@H](O)[C@@H](C)/C=C/C=C/C=C/C=C/C=C/C=C/C=C/[C@H](O[C@@H]2O[C@H](C)[C@@H](O)[C@H](N)[C@@H]2O)C[C@@H]2O[C@](O)(C[C@@H](O)C[C@@H](O)[C@H](O)CC[C@@H](O)C[C@@H](O)CC(=O)O[C@H]1C)C[C@H](O)[C@H]2C(=O)O [Amphotericin B, amphotericin B]
- MIC (Minimal Inhibitory Concentration) (Escherichia coli L47): >128 µg/mL
- MIC (Minimal Inhibitory Concentration) [1]: >128 µg/mL
- MIC (Minimal Inhibitory Concentration) (Candida albicans L145; C. albicans L14, 24 h, 35° C.): 0.5 µg/mL (≈ 0.541 µM)

Molecule: c1c[nH]cn1 [Imidazole, imidazole]
- MIC (Candida albicans L145; C. albicans L14): 3.9 mM

Molecule: CCCCCCCCCC(=O)N[C@@H](Cc1c[nH]c2ccccc12)C(=O)N[C@H](CC(N)=O)C(=O)N[C@@H](CC(=O)O)C(=O)N[C@@H]1C(=O)NCC(=O)N[C@@H](CCCN)C(=O)N[C@@H](CC(=O)O)C(=O)N[C@H](C)C(=O)N[C@@H](CC(=O)O)C(=O)NCC(=O)N[C@H](CO)C(=O)N[C@@H]([C@H](C)CC(=O)O)C(=O)N[C@@H](CC(=O)c2ccccc2N)C(=O)O[C@@H]1C [Daptomycin, daptomycin]
- MIC (Escherichia coli L47): > 128 µg/mL
- MIC [1]: 0.5 µg/mL (≈ 0.309 µM)
- MIC (Candida albicans L145; C. albicans L14, 24 h, 35° C.): > 128 µg/mL

Molecule: CN[C@@H]1[C@@H](O[C@H]2O[C@H](CO)[C@@H](N)[C@H](O)[C@H]2O)OC2C[C@@H](N)[C@@H](O[C@H]3[C@H](O)[C@@H](O)[C@H](N)C[C@@H]3N)OC2[C@@H]1O (stereo partly shown) [Apramycin]
- MIC (Escherichia coli L47): 8 µg/mL (≈ 14.8 µM)
- MIC [1]: 8 µg/mL (≈ 14.8 µM)
- MIC (Candida albicans L145; C. albicans L14, 24 h, 35° C.): > 128 µg/mL

B1: Native E40: E40 of SEQ ID NO: 3 purified from supernatant fraction of an Actinoallomurus A8 culture as in WO2013083338 (protein)
chain: MSRRVTGTILGGLILAMVPFLSTAANAAPQAAPASVSHPFHHSCATVKPGRASCNALVRSDIAQSAATLAHQAAAPSGLSPANLQSAYKLPSSTAGSGQTVAIVDAYDAPTAEADLNVYRSQFGLGACTTANGCFKKVDQNGGTSYPRKDGGWAQEISLDLDMVSAVCPNCKIVLVEAKTNSFANLGTAENTAASLANVISNSYGGSDASDASYGSYYNHPGKAITVSSGDAGYGVEYPASSHYVTAVGGTSLRTASTSRGWSETAWSGAGSGCSAYNTALSGQSGLTGCSRRAVADVSAVADPATGVAVYDSTAYQGQSGWMVFGGTSVAAPIIGGVYGLAANAASIDNNYPYAHTSSLFDVTSGSNGTCTTTKWCTAGTGWDGPTGLGTPNGTGAF
modifications: Actinoallomurus
- pH range of marked glutenase activity ([2]; native E40): 3-6
- pH optimum of relative activity ([2]; native E40-containing Actinoallomurus A8 supernatant fraction, sucAAPF-AMC): 5
- gliadin digestion (gliadin): completely digested
